The results in this text go back to publication PMC13286198 (PLOS One, 2026).

The series can be described thus: Pharmacokinetic interaction study in rats, plasma by UPLC-MS/MS. It is filed as in vivo, Sprague–Dawley rats. The note with it: oral, n = 6.

Molecules are shown by their SMILES.

Procedure: The sample size for each group of rats was calculated using the resource equation method [27]. The doses were chosen by converting the clinically recommended doses for patients to animal doses. […] The value of Km represents the equivalent dose ratio between humans and rats, calculated based on body surface area. […] The following groups received control solvents corresponding to each drug for a duration of seven consecutive days. […] Conversely, remaining groups were treated with their respective drugs at the aforementioned doses for seven consecutive days. […] Blood samples were centrifuged at 3,500 rpm for 10 min, and the supernatant was collected and stored at -80°C until processing for UPLC-MS/MS. The induction of anesthesia was performed using 5% isoflurane, and the concentration was maintained at 2% throughout the blood collection process. The blood was extracted from the eye venous plexus by well-trained professionals to minimize the animal's suffering. Following blood collection, rat liver, intestinal and kidney tissues were collected for molecular analysis on the seventh day post-treatment with the corresponding drugs for each group. Before euthanizing the animals, they were required to fast for at least 12 hours. Using sodium pentobarbital (2 g/kg) to put the animals into a deep state of anesthesia, Collect the required tissue samples and the rats were euthanized by cervical dislocation. […] The temperature maintained at 40 by gradient elution. […] Aliquots (8 μL) of these redissolved samples were used into the UPLC-MS/MS system for subsequent analysis. […] Analysis was conducted in a non-compartmental model. The metrics such as the area under the concentration-time curve (AUC), maximum plasma concentration (Cmax), time to reach Cmax (Tmax), elimination half-life (t1/2), plasma clearance volume per time unit (CLz/F), apparent volume of distribution (Vz), and mean residence time (MRT) were expressed as mean ± standard deviation (SD). Comparisons corresponding test groups were conducted using SPSS 25.0 software (SPSS Inc., Chicago, IL, USA).

In general, Cmax refers to the highest concentration seen after dosing. Regarding `CCOc1ccc(Cc2cc([C@@]34OC[C@@](CO)(O3)[C@@H](O)[C@H](O)[C@H]4O)ccc2Cl)cc1F` [henagliflozin], the maximum concentration (Cmax) (henagliflozin 1 mg/kg after telmisartan 8 mg/kg for 7 days) is 356.83 ± 59.55 ng/mL. Where the note is “henagliflozin 1 mg/kg alone”, this molecule showed a Vz of 3.87 ± 1.49 L/kg.

In the case of `CCCc1nc2c(C)cc(-c3nc4ccccc4n3C)cc2n1Cc1ccc(-c2ccccc2C(=O)O)cc1` [telmisartan], the maximum concentration (Cmax) ((control of the henagliflozin study)) is 160.33 ± 24.57 ng/mL.
